Patent publication US8541449B2, “Substituted isoquinolines and isoquinolinones as Rho kinase inhibitors” (Sanofi, priority 2008, dated 2013)

Legend:
[1] = target: T1, recombinant human PKG1-beta (Homo sapiens, UniProt Q13976); test: Determination of Protein Kinase G inhibition (Caliper peptide phosphorylation assay); assay type: biochemical; conditions: recombinant human PKG1-beta versus ROCK II
T1 construct: Active recombinant human PKG1-beta (full-length, with N-terminal His-tag); His-tag (N); purchased Millipore GmbH, Schwalbach, Germany
T1 sequence (Q13976 1-686 isoform Q13976-2): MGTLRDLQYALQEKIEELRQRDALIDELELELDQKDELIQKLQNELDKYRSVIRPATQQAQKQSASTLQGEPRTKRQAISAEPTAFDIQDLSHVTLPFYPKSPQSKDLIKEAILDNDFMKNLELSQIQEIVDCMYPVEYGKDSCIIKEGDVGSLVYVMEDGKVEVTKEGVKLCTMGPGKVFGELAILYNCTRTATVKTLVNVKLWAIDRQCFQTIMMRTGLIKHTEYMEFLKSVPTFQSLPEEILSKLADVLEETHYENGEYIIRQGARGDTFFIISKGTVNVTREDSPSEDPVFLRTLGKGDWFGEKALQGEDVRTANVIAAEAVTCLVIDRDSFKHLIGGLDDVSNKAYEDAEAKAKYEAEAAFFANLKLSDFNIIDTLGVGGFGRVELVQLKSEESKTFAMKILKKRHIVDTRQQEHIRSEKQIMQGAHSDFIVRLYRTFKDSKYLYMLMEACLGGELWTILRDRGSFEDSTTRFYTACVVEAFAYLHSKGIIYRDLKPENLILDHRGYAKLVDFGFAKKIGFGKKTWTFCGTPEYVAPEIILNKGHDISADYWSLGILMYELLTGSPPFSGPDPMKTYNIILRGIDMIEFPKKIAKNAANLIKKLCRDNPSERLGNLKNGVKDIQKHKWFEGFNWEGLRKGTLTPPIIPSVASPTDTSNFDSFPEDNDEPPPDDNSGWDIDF
Method in brief: (§1)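 Full-length His-tagged PKG1-beta (150 ng/ml working) or His-tagged PKA residues 1-351 (30 ng/ml working) was mixed with compound in pH 7.4 Tris/MgCl2/DTT buffer. Fluorescein-peptide substrate and ATP (3 μM and 120 μM working) were then added for 60 min at 32 °C before an EDTA stop. Phosphopeptide was separated electrophoretically on a Caliper instrument to derive IC50.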

[2] = target: T2, human recombinant ROCK II (Homo sapiens, UniProt O75116); test: Determination of Rho kinase inhibition (Caliper peptide phosphorylation assay); assay type: biochemical; conditions: 60 min at 32° C., negative decadal logarithm of the IC50
T2 construct: N-terminal His6-tagged recombinant human ROCK-II residues 11-552; His6 (N); purchased Millipore GmbH, Schwalbach, Germany
T2 sequence (O75116 11-552): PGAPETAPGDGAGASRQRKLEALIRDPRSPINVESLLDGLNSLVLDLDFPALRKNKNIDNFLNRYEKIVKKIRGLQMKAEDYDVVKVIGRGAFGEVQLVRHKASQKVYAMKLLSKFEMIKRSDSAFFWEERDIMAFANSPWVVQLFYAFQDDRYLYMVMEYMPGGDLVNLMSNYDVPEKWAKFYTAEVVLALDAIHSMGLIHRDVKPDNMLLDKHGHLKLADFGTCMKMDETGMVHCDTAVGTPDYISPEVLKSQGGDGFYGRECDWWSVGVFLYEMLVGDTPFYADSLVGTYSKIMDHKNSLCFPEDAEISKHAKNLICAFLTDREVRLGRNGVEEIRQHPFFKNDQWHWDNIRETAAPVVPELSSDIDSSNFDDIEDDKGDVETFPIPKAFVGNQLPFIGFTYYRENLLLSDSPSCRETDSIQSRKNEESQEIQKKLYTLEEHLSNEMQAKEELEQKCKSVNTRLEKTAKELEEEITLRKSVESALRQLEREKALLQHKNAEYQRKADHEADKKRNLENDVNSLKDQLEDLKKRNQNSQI
Method in brief: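 His6-tagged human ROCK II (residues 11-552) phosphorylated a fluorescein-labelled peptide for 60 min at 32° C in Tris-HCl pH 7.4 with MgCl2, DTT and BSA, using 3 μM peptide and 120 μM ATP as diluted stocks. EDTA-stopped; phosphopeptide separated and detected by Caliper mobility shift; IC50 determined.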

recombinant human PKA = target: T3, recombinant human PKA (Homo sapiens, UniProt P17612); test: Determination of Protein Kinase A inhibition (Caliper peptide phosphorylation assay); assay type: biochemical; conditions: recombinant human PKA versus ROCK II
T3 construct: Active recombinant human PKA (residues 1-351, N-terminal His-tag); His-tag (N); purchased Invitrogen, Karlsruhe, Germany
Method in brief: as §1

Protein Kinase G = conditions: Rho kinase versus Protein Kinase G; cited from earlier work

Row | Molecule | Selectivity against PKG [1] | pIC50 [2] | Selectivity against PKA (recombinant human PKA) | selectivity against Protein Kinase G (Protein Kinase G) [fold]
1 | CCC(N)[C@]1(c2ccccc2OC)CC[C@H](Oc2cc3cc[nH]c(=O)c3cc2Cl)CC1 (stereo partly drawn) [Example 69, cis-6-[4-(1-Amino-propyl)-4-(2-methoxy-phenyl)-cyclohexyloxy]-7-chloro-2H isoquinolin-1-one] | >300 | +++++++ (8.0≦pIC50) | >1000 | 
2 | CCC(N)[C@]1(c2ccc(OC(F)(F)F)cc2)CC[C@H](Oc2cc3cc[nH]c(=O)c3cc2Cl)CC1 (stereo partly drawn) [Example 70, cis-6-[4-(1-Amino-propyl)-4-(4-trifluoro-methoxy-phenyl)-cyclohexyloxy]-7-chloro-2H-isoquinolin-1-one] | >1000 | +++++++ (8.0≦pIC50) | >1000 | 
3 | CC(C)(N)[C@]1(c2ccc(F)cc2)CC[C@H](Oc2cc3cc[nH]c(=O)c3cc2Cl)CC1 [Example 77, cis-6-[4-(1-Amino-1-methyl-ethyl)-4-(4-fluoro-phenyl)-cyclohexyloxy]-7-chloro-2H-isoquinolin-1-one] | >300 | +++++++ (8.0≦pIC50) | >1000 | 
4 | NC(C1CC1)[C@]1(c2ccc(F)cc2)CC[C@H](Oc2cc3cc[nH]c(=O)c3cc2Cl)CC1 (stereo partly drawn) [Example 82, cis-6-[4-(Amino-cyclopropyl-methyl)-4-(4-fluoro-phenyl)-cyclohexyloxy]-7-chloro-2H-isoquinolin-1-one] | >1000 | +++++++ (8.0≦pIC50) | >1000 | 
5 | CCC(N)[C@]1(c2cccc(C(F)(F)F)c2)CC[C@H](Oc2cc3cc[nH]c(=O)c3cc2Cl)CC1 (stereo partly drawn) [Example 83, cis-6-[4-(1-Amino-propyl)-4-(3-trifluoromethyl-phenyl)-cyclohexyloxy]-7-chloro-2H-isoquinolin-1-one] | >10 | +++++ (6.0≦pIC50<7.0) | >100 | 
6 | CCC(N)[C@]1(c2cccc(OC(F)(F)F)c2)CC[C@H](Oc2cc3cc[nH]c(=O)c3cc2Cl)CC1 (stereo partly drawn) [Example 84, cis-6-[4-(1-Amino-propyl)-4-(3-trifluoromethoxy-phenyl)-cyclohexyloxy]-7-chloro-2H-iso quinolin-1-one] | >10 | +++++ (6.0≦pIC50<7.0) | >100 | 
7 | CCC(N)[C@]1(c2cccc(OC(F)(F)F)c2)CC[C@H](Oc2cc3cc[nH]c(=O)c3cc2C)CC1 (stereo partly drawn) [Example 85, cis-6-[4-(1-Amino-propyl)-4-(3-trifluoro-methoxy-phenyl)-cyclo-hexyloxy]-7-methyl-2H-iso quinolin-1-one] | >10 | +++++ (6.0≦pIC50<7.0) | >100 | 
8 | CCC(N)[C@]1(c2cccc(S(C)(=O)=O)c2)CC[C@H](Oc2cc3cc[nH]c(=O)c3cc2Cl)CC1 (stereo partly drawn) [Example 99, cis-6-[4-(1-Amino-propyl)-4-(3-methanesulfonyl-phenyl)-cyclohexyloxy]-7-chloro-2H-isoquinolin-1-one] | >100 | +++++++ (8.0≦pIC50) | >1000 | 
9 | C[C@@H](N)[C@H]1CC[C@H](C(=O)Nc2ccncc2)CC1 [Example Y-27632] |  |  |  | 20
10 | cis-6-[4-(1- Amino-propyl)-4- (3-bromo- phenyl)-cyclo hexyloxy]-7- chloro-2H-iso quinolin-1-one [Example 29] | >1000 | +++++++ (8.0≦pIC50) | >1000 | 

The next lines start with results.

Row | Selectivity against PKG [1] | pIC50 [2] | Selectivity against PKA (recombinant human PKA) | Molecule | selectivity against Protein Kinase G (Protein Kinase G) [fold]
11 | >10 | +++++ (6.0≦pIC50<7.0) | >10 | CCC(N)[C@]1(c2cccc(C(F)(F)F)c2)CC[C@H](Oc2cc3cc[nH]c(=O)c3cc2C)CC1 (stereo partly drawn) [Example 86, cis-6-[4-(1-Amino-propyl)-4-(3-trifluoromethyl-phenyl)-cyclohexyloxy]-7-methyl-2H-iso quinolin-1-one] | 
12 | >100 | ++++++ (7.0≦pIC50<8.0) | >1000 | CCC(N)[C@]1(c2ccccc2)CC[C@H](Oc2cc3cc[nH]c(=O)c3cc2F)CC1 (stereo partly drawn) [Example 87, cis-6-[4-(1-Amino-propyl)-4-phenyl-cyclohexyloxy]-7-fluoro-2H-iso quinolin-1-one] | 
13 | >10 | +++++ (6.0≦pIC50<7.0) | >10 | CCC(N)[C@]1(c2ccccc2)CC[C@H](Oc2c(F)cc3c(=O)[nH]ccc3c2C)CC1 (stereo partly drawn) [Example 88, cis-6-[4-(1-Amino-propyl)-4-phenyl-cyclohexyloxy]-7-fluoro-5-methyl-2H-isoquinolin-1-one] | 
14 | >300 | +++++++ (8.0≦pIC50) | >1000 | CCC(N)[C@]1(c2ccc(C#N)cc2)CC[C@H](Oc2cc3cc[nH]c(=O)c3cc2Cl)CC1 (stereo partly drawn) [Example 97, cis-4-[1-(1-Amino-propyl)-4-(7-chloro-1-oxo-1,2-dihydro-isoquinolin-6-yloxy)-cyclohexyl]benzonitrile] | 
15 | >1000 | +++++++ (8.0≦pIC50) | >1000 | CCC(N)[C@@]1(c2ccccc2)C[C@@H]2C[C@H]1CC2Oc1cc2cc[nH]c(=O)c2cc1Cl (stereo partly drawn) [Example 100, 6-[(1S,4S,5S)-5-(1-Amino-propyl)-5-phenyl-bicyclo[2.2.1]hept-2-yloxy]-7-chloro-2H-isoquinolin-1-one] | 
16 | >100 | ++++++ (7.0≦pIC50<8.0) | >300 | CC(N)C[C@]1(c2ccc(F)cc2)CC[C@H](Oc2cc3cc[nH]c(=O)c3cc2Cl)CC1 (stereo partly drawn) [Example 109, cis-6-[4-(2-Amino-propyl)-4-(4-fluoro-phenyl)-cyclohexyloxy]-7-chloro-2H-isoquinolin-1-one] | 
17 | >100 | ++++++ (7.0≦pIC50<8.0) | >300 | CCC(N)C[C@]1(c2ccc(F)cc2)CC[C@H](Oc2cc3cc[nH]c(=O)c3cc2Cl)CC1 (stereo partly drawn) [Example 110, cis-6-[4-(2-Amino-butyl)-4-(4-fluoro-phenyl)-cyclohexyloxy]-7-chloro-2H-isoquinolin-1-one] | 
18 | >1000 | +++++++ (8.0≦pIC50) | >1000 | NC(CF)[C@]1(c2ccc(F)cc2)CC[C@H](Oc2cc3cc[nH]c(=O)c3cc2Cl)CC1 (stereo partly drawn) [Example 114, cis-6-[4-(1-Amino-2-fluoro-ethyl)-4-(4-fluoro-phenyl)-cyclohexyloxy]-7-chloro-2H-isoquinolin-1-one] | 
19 | >10 | +++++ (6.0≦pIC50<7.0) | >10 | CCC(N)C1(c2ccc(F)cc2)CC(Oc2cc3cc[nH]c(=O)c3cc2Cl)C1 (stereo not shown) [Example 125, 6-[3-(1-Amino-propyl)-3-(4-fluoro-phenyl)-cyclobutyloxy]-7-chloro-2H-isoquinolin-1-one] | 
20 | >10 | +++++ (6.0≦pIC50<7.0) | >10 | NC(c1ccccc1)C1CCC(Oc2cc3cc[nH]c(=O)c3cc2Cl)CC1 (stereo not shown) [Example 128, 6-[4-(amino-phenyl-methyl)-cyclohexyloxy]-7-chloro-2H-isoquinolin-1-one] | 
